Test results reported in the supplement of paper PMC10307832.

Tests used:
Assay in all cases: relative viability (nuclei count vs DMSO), 5 days (fraction); higher = more cells survive
[1] = compound: COc1cc2nc(N3CCCN(C)CC3)nc(NC3CCN(Cc4ccccc4)CC3)c2cc1OC + CC(C)C[C@H](NC(=O)[C@H](Cc1ccccc1)NC(=O)c1cnccn1)B(O)O [Bortezomib] (partner 0.002 µM)
Summary of the method: (§1)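 Relative viability divides the nuclei count in treated wells by that in vehicle wells. Lung cancer cell lines were seeded in 1536-well plates, dosed by pin tool the next day, and fixed and stained after 5 days in one step with final 0.05% Triton X-100, 1% formaldehyde and 1 ug/ml Hoechst. Dosing was a single drug or a fixed anchor-drug dose plus five library-drug doses (not always all listed) in √10 steps, and values are medians of duplicate plates imaged at 4×.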

AZD6482 + Trametinib = compound: Cc1cc([C@@H](C)Nc2ccccc2C(=O)O)c2nc(N3CCOCC3)cc(=O)n2c1 [AZD6482] + CC(=O)Nc1cccc(-n2c(=O)n(C3CC3)c(=O)c3c(Nc4ccc(I)cc4F)n(C)c(=O)c(C)c32)c1 [Trametinib] (partner 0.02 µM)
Summary of the method: as §1

AZD6482 + Foretinib = compound: Cc1cc([C@@H](C)Nc2ccccc2C(=O)O)c2nc(N3CCOCC3)cc(=O)n2c1 [AZD6482] + COc1cc2c(Oc3ccc(NC(=O)C4(C(=O)Nc5ccc(F)cc5)CC4)cc3F)ccnc2cc1OCCCN1CCOCC1 [Foretinib] (partner 0.25 µM)
Summary of the method: as §1

[2] = compound: COc1cc2nc(N3CCCN(C)CC3)nc(NC3CCN(Cc4ccccc4)CC3)c2cc1OC + Cc1nc(Nc2ncc(C(=O)Nc3c(C)cccc3Cl)s2)cc(N2CCN(CCO)CC2)n1 [Dasatinib] (partner 0.075 µM)
Summary of the method: as §1

| Cell Line | relative viability ([1]; first compound 0.2 µM) | relative viability ([1]; first compound 0.6325 µM) | relative viability ([1]; first compound 2 µM) | relative viability ([1]; first compound 6.325 µM) | relative viability (AZD6482 + Trametinib; first compound 0.08 µM) | relative viability (AZD6482 + Trametinib; first compound 0.253 µM) | relative viability (AZD6482 + Trametinib; first compound 0.8 µM) | relative viability (AZD6482 + Trametinib; first compound 2.53 µM) | relative viability (AZD6482 + Trametinib; first compound 8 µM) | relative viability (AZD6482 + Foretinib; first compound 0.08 µM) | relative viability (AZD6482 + Foretinib; first compound 0.253 µM) | relative viability (AZD6482 + Foretinib; first compound 0.8 µM) | relative viability (AZD6482 + Foretinib; first compound 2.53 µM) | relative viability (AZD6482 + Foretinib; first compound 8 µM) | relative viability ([2]; first compound 0.2 µM) | relative viability ([2]; first compound 0.6325 µM) | relative viability ([2]; first compound 2 µM) | relative viability ([2]; first compound 6.325 µM) |
| --- | --- | --- | --- | --- | --- | --- | --- | --- | --- | --- | --- | --- | --- | --- | --- | --- | --- | --- |
| NCI-H1755 | 1 | 0.965 | 0.922 | 0.88 | 0.7 | 0.75 | 0.693 | 0.542 | 0.508 | 0.807 | 0.834 | 0.851 | 0.669 | 0.603 | 0.436 | 0.395 | 0.416 | 0.423 |
| HCC-78 | 0.511 | 0.434 | 0.535 | 0.504 | 0.547 | 0.496 | 0.57 | 0.345 | 0.417 | 0.471 | 0.493 | 0.517 | 0.351 | 0.349 | 0.486 | 0.557 | 0.362 | 0.421 |
| IA-LM | 0.705 | 0.764 | 1.04 | 0.737 |  |  |  |  |  | 1.18 | 1.2 | 1.52 |  | 1.09 |  |  |  |  |
| NCI-H322M | 1.31 | 1.28 | 1.12 | 1.2 | 0.51 | 0.534 | 0.58 | 0.452 | 0.443 | 0.823 | 0.847 | 0.897 | 0.543 | 0.738 | 0.258 | 0.281 | 0.274 | 0.26 |
| NCI-H3122 | 0.97 | 0.966 | 1.07 | 0.989 | 0.211 | 0.23 | 0.184 | 0.181 | 0.161 | 0.937 | 0.846 | 1.09 | 0.946 | 0.926 | 0.969 | 0.763 | 0.894 | 0.765 |
| COR-L23 | 0.956 | 0.884 | 1.11 | 0.933 | 0.553 | 0.598 | 0.652 | 0.403 | 0.521 | 0.888 | 1.04 | 1.03 | 0.81 | 0.799 | 0.57 | 0.476 | 0.559 | 0.519 |
| NCI-H2087 | 0.868 | 0.795 | 0.884 | 0.675 | 0.176 | 0.162 | 0.133 | 0.132 | 0.183 | 1.07 | 0.972 | 1.12 |  | 1.08 | 0.7 | 0.75 | 0.941 | 0.617 |
| LC-2-ad | 1.03 | 1.01 | 1.16 | 1.04 | 0.864 | 0.886 | 0.942 | 0.798 | 0.614 | 0.902 | 0.939 | 0.878 | 0.714 | 0.787 | 0.493 | 0.618 | 0.804 | 0.65 |
| NCI-H1915 | 0.97 | 0.973 | 1.02 | 0.957 | 0.257 | 0.27 | 0.29 | 0.239 | 0.226 | 1.05 | 1.02 | 1.1 | 1 | 1.09 | 0.35 | 0.355 | 0.338 | 0.349 |
| NCI-H1793 |  |  |  |  | 0.37 | 0.397 | 0.352 | 0.32 | 0.283 | 0.575 | 0.431 | 0.507 | 0.3 | 0.322 | 0.378 | 0.412 | 0.375 | 0.375 |
| NCI-H1792 | 0.952 | 1.01 | 1.08 | 1.22 | 0.322 | 0.377 | 0.41 | 0.251 | 0.283 |  |  |  |  |  | 0.89 | 0.781 | 0.824 | 0.816 |
| NCI-H2342 |  |  |  |  | 0.682 | 0.685 | 0.799 | 0.561 | 0.622 | 0.927 | 0.891 | 0.987 | 0.614 | 0.653 | 0.34 | 0.295 | 0.311 | 0.312 |
| NCI-H1299 | 1.01 | 1.01 | 1.02 | 1.05 |  |  |  |  |  | 1.06 | 1.13 | 1.31 | 1.11 | 1.12 |  |  |  |  |
| SW 900 |  |  |  |  | 0.851 | 0.591 | 0.703 | 0.43 | 0.568 | 0.751 | 0.753 | 0.773 |  | 0.792 | 0.411 | 0.578 | 0.654 | 0.498 |
| SK-MES-1 |  |  |  |  | 0.394 | 0.454 | 0.414 | 0.294 | 0.291 | 0.519 | 0.783 | 0.565 | 0.422 | 0.403 | 0.41 | 0.374 | 0.386 | 0.171 |
| NCI-H1648 |  |  |  |  | 0.483 | 0.434 | 0.491 |  | 0.365 |  |  |  |  |  |  |  |  |  |
| NCI-H522 |  |  |  |  | 0.872 | 0.711 | 0.841 | 0.549 | 0.566 |  |  |  |  |  | 0.963 | 1.15 | 1.02 | 0.92 |
| LK-2 |  |  |  |  | 0.616 | 0.649 | 0.782 | 0.623 | 0.564 | 1.3 | 1.08 | 1.22 | 0.822 | 0.948 | 0.35 | 0.341 | 0.261 | 0.324 |
| NCI-H1395 |  |  |  |  | 0.949 | 0.8 | 0.785 | 0.522 | 0.627 | 0.757 | 0.663 | 0.687 | 0.518 | 0.555 | 0.459 | 0.425 | 0.384 | 0.357 |
| A549 |  |  |  |  |  |  |  |  |  | 0.898 | 0.842 | 0.979 | 0.596 | 0.743 |  |  |  |  |
| NCI-H2170 |  |  |  |  | 0.878 | 0.879 | 0.844 | 0.836 | 0.733 | 0.977 | 1 | 0.955 | 0.922 | 0.785 | 0.658 | 0.594 | 0.638 | 0.583 |
| NCI-H1563 | 0.849 | 0.921 | 0.808 | 0.778 |  |  |  |  |  | 0.89 | 0.875 | 0.908 | 0.765 | 0.652 | 0.469 | 0.467 | 0.441 | 0.421 |
| ABC-1 | 0.26 | 0.339 | 0.264 | 0.328 |  |  |  |  |  | 0.868 | 1.21 | 1.03 | 0.86 | 0.719 | 0.531 | 0.525 | 0.568 | 0.581 |
